According to patent publication US20250144066A1, “Prevention and Treatment of Parasitic Infections” (priority 2017, published 2025):
Values after ≈ are worked out from the molar mass of the structure shown. Like-named read-outs stand apart in the source and are kept apart here.

Legend:
Zika Virus [1] = assay: Zika virus CPE inhibition (Neutral Red), Huh7, secondary (Zika-094); assay type: cell-based
Zika Virus [2] = assay: Zika prevention, virus yield reduction (VYR), Vero 76, 4 h pre-incubation (Zika-138); assay type: cell-based; details: Zika virus, Visual (Virus yield reduction), pre-incubated 4 hours prior to infection, read-out: EC90
Zika Virus [3] = assay: Zika virus yield reduction (VYR), Vero 76, secondary (Zika-094); assay type: cell-based; details: Visual (Virus yield reduction), MR766
[4] = Toxicity in A549 cells (ADV-0172); assay type: cell-based; details: human, A549 cells
Zika Virus [5] = assay: Zika prevention, virus yield reduction (VYR), Vero 76, 24 h pre-incubation (Zika-138); assay type: cell-based; details: Zika virus, Visual (Virus yield reduction), pre-incubated 24 hours prior to infection, read-out: EC90
in vitro [6] = details: dog
[7] = Neutral Red toxicity in Vero 76 cells, secondary (Zika-094); details: monkey
Zika Virus [8] = assay: Zika prevention, CPE inhibition (Neutral Red), Huh7, 24 h pre-incubation (Zika-138); assay type: cell-based; details: Zika virus, Huh-7, Neutral Red (Cytopathic effect), pre-incubated 24 hours prior to infection, read-out: EC50
[9] = Neutral Red toxicity in Huh7 cells, 4 h pre-incubation (Zika-138); details: human
[10] = system: Respiratory syncytial virus A2; assay: microbe, parasite or virus in culture; assay type: cell-based
Powassan virus LB = assay: microbe, parasite or virus in culture; assay type: cell-based; details: for EC50: Powassan virus, BHK
Zika Virus [11] = assay: Zika virus CPE inhibition (Neutral Red), Vero 76, secondary (Zika-094); assay type: cell-based; details: Neutral Red (Cytopathic effect), MR766
Zika Virus [12] = assay: Zika prevention, CPE inhibition (Neutral Red), Huh7, 4 h pre-incubation (Zika-138); assay type: cell-based; details: Zika virus, Huh-7, Neutral Red (Cytopathic effect), pre-incubated 4 hours prior to infection, read-out: EC50
Zika Virus [13] = assay: Zika prevention, virus yield reduction (VYR), Huh7, 24 h pre-incubation (Zika-138); assay type: cell-based; details: for Virus Titer: 24 hr pre-incubation, Huh7 cells
Protocol: An experiment was carried out as specified in Example 8. In a Zika Prevention Trial, MPA was pre-incubated with human cells 4 hours or 24 hours before Zika virus infection.

[14] = Toxicity in Vero 76 cells, primary screen (Zika-089); details: monkey
[15] = system: human norovirus (NV, GT1); assay: Human norovirus replicon, RNA Hybridization, HG23, primary (16-21); assay type: cell-based
Description: (§1) Secondary testing was done with human norovirus.

Lassa fever virus Josiah = assay: organism not typed; assay type: cell-based
[16] = Neutral Red toxicity in Vero 76 cells, 24 h pre-incubation (Zika-138); details: monkey
Zika Virus [17] = assay: Zika virus yield reduction (VYR), Huh7, secondary (Zika-094); assay type: cell-based; details: Huh-7, Visual (Virus yield reduction), MR766
in vitro [18] = details: African green monkey
[19] = Neutral Red toxicity in Huh7 cells, secondary (Zika-094); details: human
[20] = Neutral Red toxicity in Vero 76 cells, 4 h pre-incubation (Zika-138); details: monkey
[21] = NR toxicity in HG23 cells (17-14); assay type: cell-based; details: human, HG23 cells, NR (Tox)
Description: as §1

Zika Virus [22] = assay: Zika prevention, CPE inhibition (Neutral Red), Vero 76, 4 h pre-incubation (Zika-138); assay type: cell-based; details: Zika virus, Neutral Red (Cytopathic effect), pre-incubated 4 hours prior to infection, read-out: EC50
[23] = NR toxicity in RAW264.7 cells (17-09); details: mouse
in vitro [24] = details: African green monkey; remark: listed apart in the source
Adenovirus5 Adenoid75 = assay: Adenovirus 5 CPE inhibition, A549 (ADV-0172); assay type: cell-based; details: for EC50: Human mastadenovirus C, A549, read-out: EC50
Zika Virus [25] = assay: Zika prevention, CPE inhibition (Neutral Red), Vero 76, 24 h pre-incubation (Zika-138); assay type: cell-based; details: Zika virus, Neutral Red (Cytopathic effect), pre-incubated 24 hours prior to infection, read-out: EC50
[26] = Cell Titer-Glo toxicity in C-33A cells (HPV16-15); details: human
[27] = system: Influenza A virus H1N1 California/07/2009; assay: microbe, parasite or virus in culture; assay type: cell-based
[28] = RNA Hybridization toxicity in HG23 cells (16-21); assay type: cell-based; details: human, HG23 cells
Description: as §1

Zika Virus [29] = assay: Zika virus cytopathic effect (CPE) inhibition, Vero 76, primary screen (Zika-089); assay type: cell-based; details: for EC50: Zika virus, MR766, Vero 76, primary
mouse norovirus (MNV-1) = assay: Mouse norovirus CPE inhibition (NR), RAW264.7 (17-09); assay type: cell-based; details: Norovirus
[30] = system: Rift Valley fever virus MP-12; assay: microbe, parasite or virus in culture; assay type: cell-based; details: for EC50: Rift Valley fever virus, Vero76
[31] = Vero 76, Neutral Red (Cytopathic effect)
[32] = Vero 76, Visual (Cytopathic effect)

COc1c(C)c2c(c(O)c1C/C=C(\C)CCC(=O)O)C(=O)OC2 [EP1601, 6-(4-hydroxy-6-methoxy-7-methyl-3-oxo-1,3-dihydroisobenzofuran-5-yl)-4-methyl-hex-4-enoic acid] gave an EC50 (Zika Virus [1]; Huh-7, Neutral Red (Cytopathic effect), MR766, Huh7, secondary) of 0.14 µg/mL (≈ 0.437 µM), an EC50 (Zika Virus [1]; Huh-7, Zika virus, 'one of our tests' (test not specified), read-out: EC50) of 0.049 µg/mL (≈ 0.153 µM) and an EC90 (Zika Virus [2]) of 17.8 µg/mL (≈ 55.6 µM). It also gave an EC90 (Zika Virus [3]) of 0.3 µg/mL (≈ 0.937 µM), a CC50 ([4]; Neutral Red (Toxicity)) of 12 µg/mL (≈ 37.5 µM) and a CC50 ([4]; Visual (Toxicity)) of 15 µg/mL (≈ 46.8 µM). The EC90 (Zika Virus [5]) was 10 µg/mL (≈ 31.2 µM), the CC50 (in vitro [6]) was greater than 100 µM and the CC50 [7] was 2.3 µg/mL (≈ 7.18 µM). For the same compound, the EC50 (Zika Virus [8]) was 0.55 µg/mL (≈ 1.72 µM), the CC50 [9] was greater than 100 µg/mL and the “activity against Respiratory Syncytial Virus” value [10] was “highly active”. For the same compound, the EC50 ([10]; human respiratory syncytial virus, MA104) was less than 0.1 µg/mL, the “activity against Powassan” value (Powassan virus LB) was “active” and the EC50 (Powassan virus LB; Neutral Red (Cytopathic effect)) was 0.36 µg/mL (≈ 1.12 µM). For the same compound, the EC50 (Powassan virus LB; Visual (Cytopathic effect)) was 0.32 µg/mL (≈ 0.999 µM), the EC50 (Zika Virus [11]) was 0.14 µg/mL (≈ 0.437 µM) and the EC50 (Zika Virus [12]) was 0.17 µg/mL (≈ 0.531 µM). The “virus in VYR assay” value (Zika Virus [13]; Huh7 cells pre-incubated with drug for 24 hrs) was “reduced virus to zero”, the “Virus Titer” value (Zika Virus [13]; MPA 0.1 μg/ml) was 4.5 Log10 CCID50/0.1 ml and the “Virus Titer” value (Zika Virus [13]; MPA 1 μg/ml) was 3.5 Log10 CCID50/0.1 ml. The “Virus Titer” value (Zika Virus [13]; MPA 10 μg/ml) was “<.67 Log10 CCID50/0.1 ml”, the “Virus Titer” value (Zika Virus [13]; MPA 32 μg/ml) was “<.67 Log10 CCID50/0.1 ml” and the “Virus Titer” value (Zika Virus [13]; MPA 100 μg/ml) was “<.67 Log10 CCID50/0.1 ml”. For the same compound, the EC90 (Zika Virus [13]; Zika virus, Huh-7, Visual (Virus yield reduction), Huh7, pre-incubated 24 hours prior to infection, read-out: EC90) was 0.78 µg/mL (≈ 2.43 µM), the “prevention of infection by Zika virus” value (Zika Virus [13]; given 24 hours before infection) was “completely prevent infection” and the CC50 ([14]; CC50, Neutral Red (Toxicity)) was 14 µg/mL (≈ 43.7 µM). It also gave a CC50 ([14]; CC50, Visual (Toxicity)) greater than 100 µg/mL, an EC50 ([15]; Norovirus, GT1, HG23) of 151 nM and an EC90 ([15]; Norovirus, GT1, HG23) of 1300 nM. For the same compound, the “activity against Norovirus” value ([15]; three in vitro tests (human and mouse norovirus)) was “active”, the “activity against Lassa Fever” value (Lassa fever virus Josiah) was “active” and the EC50 (Lassa fever virus Josiah; Vero) was 0.2 µg/mL (≈ 0.624 µM). It also gave a CC50 [16] of 37 µg/mL (≈ 116 µM), an EC90 (Zika Virus [17]) of 0.088 µg/mL (≈ 0.275 µM) and a CC50 (in vitro [18]) greater than 100 µg/mL. The CC50 [19] was 1.6 µg/mL (≈ 4.99 µM), the CC50 [20] was greater than 100 µg/mL and the CC50 [21] was 64 µM. It also gave an EC50 (Zika Virus [22]) greater than 100 µg/mL, a CC50 [23] of 32 µM and a CC50 (in vitro [24]) of 26 µg/mL (≈ 81.2 µM). The “activity against Adenovirus 5” value (Adenovirus5 Adenoid75) was “active”, the EC50 (Adenovirus5 Adenoid75; A549, Neutral Red (Cytopathic effect)) was 0.31 µg/mL (≈ 0.968 µM) and the EC50 (Adenovirus5 Adenoid75; A549, Visual (Cytopathic effect)) was 0.32 µg/mL (≈ 0.999 µM). The EC50 (Zika Virus [25]) was 8 µg/mL (≈ 25 µM), the CC50 [26] was greater than 150 µM and the “activity against pandemic Influenza A H1N1 (California/07/2009)” value [27] was “highly active”. For the same compound, the EC50 ([27]; Influenza A virus, H1N1, MDCK) was less than 100 nM, the CC50 [28] was greater than 100 µM and the EC50 (Zika Virus [29]; [31]) was 0.15 µg/mL (≈ 0.468 µM). The EC50 (Zika Virus [29]; [32]) was less than 0.1 µg/mL, the “activity against Zika Virus” value (Zika Virus [29]; three in vitro tests (Zika-A, Zika-B, Zika-C)) was “active” and the EC50 (mouse norovirus (MNV-1)) was 123 nM. For the same compound, the EC90 (mouse norovirus (MNV-1)) was 384 nM, the “activity against Rift Valley” value [30] was “active” and the EC50 [30, 31] was 4 µg/mL (≈ 12.5 µM). For the same compound, the EC50 [30, 32] was 3.1 µg/mL (≈ 9.68 µM).
